Assay results from US7101878B1 (Agouron Pharmaceuticals, Inc., priority 1998, dated 2006).
Read-outs that look alike come from different tables or passages of the source.

Biological target: T1, human GnRH receptor (Homo sapiens, UniProt P30968)
T1 construct: expressed in transfected cells; host or cells: HEK 293 (hGnRH-R/293, from Dr. Stuart Sealfon)
T1 sequence (P30968 1-328): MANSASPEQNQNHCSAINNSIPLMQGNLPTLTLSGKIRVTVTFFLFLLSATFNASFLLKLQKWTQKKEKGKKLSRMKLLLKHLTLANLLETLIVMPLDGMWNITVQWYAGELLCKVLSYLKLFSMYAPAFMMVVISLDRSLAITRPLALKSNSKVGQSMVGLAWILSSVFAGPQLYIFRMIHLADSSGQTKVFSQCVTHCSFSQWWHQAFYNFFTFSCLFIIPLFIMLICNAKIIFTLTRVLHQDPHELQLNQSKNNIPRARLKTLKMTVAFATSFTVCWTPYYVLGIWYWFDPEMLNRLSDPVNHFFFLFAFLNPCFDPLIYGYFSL
Assay: Radioligand binding, 125I-GnRH-A displacement, membranes of HEK 293 cells with human GnRH receptor
Details: for remaining activity at 1 µM / remaining activity at 10 µM: substrate remaining, closer to zero = closer to 100% inhibition; for remaining activity at 1 µM: 1 uM compound, read-out: S%R 1 uM hGnRHR; for remaining activity at 10 µM: 10 uM compound, read-out: S%R 10 uM hGnRHR; for IC50: read-out: hGnRH IC50
Description: All compounds were diluted in 1% DMSO (final assay concentration) in binding assay buffer. […] Reactions were terminated by rapid filtration onto 96-well Packard GF/C filters soaked in 0.1% polyethyleneimine. Filters were washed three times with PBS buffer, dried and counted on a Packard Topcount by liquid scintillation counting.
Assay conditions were identical for assessing compound activities at other species. […] IC50 values for control peptides and test compounds were calculated utilizing GraphPad Prism™ software.
Crude compounds were tested using the competitive radioligand binding assay described above.
The reaction mixture was vortexed and incubated for 1 min at room temperature. After one min, the mixture was vortexed and allowed to incubate for an additional minute. 2 ml of 0.5 M acetic acid/1% BSA was added to the reaction tube and the mixture was added to a C18 Sep-Pak cartridge. The cartridge was washed with subsequent washes of 5 ml H2O and 5 ml 0.5M acetic acid and then eluted with 5×1 ml of 60% CH3CN/40% 0.5M acetic acid. The eluate was diluted with 3× volume of HPLC buffer A (0.1% TFA in H2O) and loaded onto a C18 column. The iodinated product was eluted over 20-25 min with a gradient of 25-100% CH3CN containing 0.1% TFA. The radioactive fractions (750 ed/fraction) are collected into clean polypropylene tubes containing 100 μl of 10% BSA. Fractions were assessed for biological activity by radioligand binding.
S%R is the substrate remaining.

[1] = 1 uM, read-out: % Inhib. @ 1 uM hGnRH
[2] = 1 h, repeat of % Inhib. at 1 uM, read-out: Repeats @ 1 uM hGnRH

Cc1cc2c(cc1Cc1ccc(C(=O)NC(C)c3ccc([N+](=O)[O-])cc3)o1)C(C)(C)CCC2(C)C (centres unmarked) [Compound 455]
remaining activity at 1 µM (1 h): 58%

Cc1cccc(NC(=O)c2ccc(Cc3cc4c(cc3C)C(C)(C)CCC4(C)C)o2)c1 [Compound 364]
remaining activity at 10 µM (1 h): 21%

Cc1cc2c(cc1Cc1ccc(C(=O)NCCNc3ccccc3)o1)C(C)(C)CCC2(C)C [Compound 406]
remaining activity at 1 µM (1 h): 30%

Cc1cc2c(cc1Cc1ccc(C(=O)N(C)[C@H](C)[C@H](O)c3ccccc3)o1)C(C)(C)CCC2(C)C
inhibition at 1 µM [1]: -10% | inhibition at 1 µM [2]: -6%

COc1cc(OC)c(CNC(=O)c2ccc(Cc3cc4c(cc3C)C(C)(C)CCC4(C)C)o2)c(OC)c1 [drawing 1094]
inhibition at 1 µM [1]: -10% | inhibition at 1 µM [2]: 13%

Cc1cc2c(cc1Cc1ccc(C(=O)Nc3ccc(O)cc3)o1)C(C)(C)CCC2(C)C [Compound 340]
remaining activity at 10 µM (1 h): 28%

Cc1cc2c(cc1Cc1ccc(C(=O)N(C)C(C)C(O)c3ccc(O)cc3)o1)C(C)(C)CCC2(C)C (centres unmarked)
inhibition at 1 µM [1]: -10% | inhibition at 1 µM [2]: -13%

Cc1cc2c(cc1Cc1ccc(C(=O)N(C)Cc3ccccc3)o1)C(C)(C)CCC2(C)C
inhibition at 1 µM [1]: -7% | inhibition at 1 µM [2]: 4%

Cc1cc2c(cc1Cc1ccc(C(=O)NCCc3ccc(F)cc3)o1)C(C)(C)CCC2(C)C [drawing 1198]
inhibition at 1 µM [1]: 45% | inhibition at 1 µM [2]: 45%

Cc1cc2c(cc1Cc1ccc(C(=O)N(C)[C@@H](C)[C@@H](O)c3ccccc3)o1)C(C)(C)CCC2(C)C
inhibition at 1 µM [1]: -11% | inhibition at 1 µM [2]: -9%

Cc1cc2c(cc1Cc1ccc(C(=O)Nc3nnc(C4CC4)s3)o1)C(C)(C)CCC2(C)C [Compound 336]
remaining activity at 10 µM (1 h): 57%

Cc1cc2c(cc1Cc1ccc(C(=O)NCC3CCN(C(=N)N)CC3)o1)C(C)(C)CCC2(C)C [Compound 35]
IC50: 1200 nM

Cc1cc2c(cc1Cc1ccc(C(=O)NCc3cccnc3)o1)C(C)(C)CCC2(C)C [drawing 1067]
inhibition at 1 µM [1]: 69% | inhibition at 1 µM [2]: 74%

Cc1cc2c(cc1Cc1ccc(C(=O)Nc3nccc4ccccc34)o1)C(C)(C)CCC2(C)C [Compound 356]
remaining activity at 10 µM (1 h): 17%

Cc1cc2c(cc1Cc1ccc(C(=O)NC(CO)Cc3ccccc3)o1)C(C)(C)CCC2(C)C (centres unmarked) [drawing 1137]
% Inhib. @ 1 uM hGnRH (1 uM): 17% | Repeats @ 1 uM hGnRH (repeat of % Inhib. at 1 uM): 20

Cc1cc2c(cc1Cc1ccc(C(=O)NCC(O)c3ccccc3)o1)C(C)(C)CCC2(C)C (centres unmarked) [Compound 444]
remaining activity at 1 µM (1 h): 32%

Cc1cc2c(cc1Cc1ccc(C(=O)N3CCN(c4ccc(C(F)(F)F)cn4)CC3)o1)C(C)(C)CCC2(C)C
inhibition at 1 µM [1]: -4% | inhibition at 1 µM [2]: -7%

COc1cc(OC)c(NC(=O)c2ccc(C(=O)c3cc4c(cc3C)C(C)(C)CCC4(C)C)o2)c(OC)c1 [Compound 190]
IC50: 420 nM

Cc1cc2c(cc1Cc1ccc(C(=O)NCc3cccc(F)c3)o1)C(C)(C)CCC2(C)C [Compound 443]
remaining activity at 1 µM (1 h): 19%

Cc1cc2c(cc1Cc1ccc(C(=O)NCCCc3ccccc3)o1)C(C)(C)CCC2(C)C [drawing 990]
inhibition at 1 µM [1]: 86% | inhibition at 1 µM [2]: 90%

Cc1cc2c(cc1Cc1ccc(C(=O)NCc3ccc(F)cc3)o1)C(C)(C)CCC2(C)C [drawing 1135]
inhibition at 1 µM [1]: 69% | inhibition at 1 µM [2]: 71%

Cc1cc2c(cc1Cc1ccc(C(=O)N(C)[C@H](C)[C@@H](O)c3ccccc3)o1)C(C)(C)CCC2(C)C
inhibition at 1 µM [1]: 20% | inhibition at 1 µM [2]: 23%

Cc1ccc(CNC(=O)c2ccc(Cc3cc4c(cc3C)C(C)(C)CCC4(C)C)o2)cc1 [drawing 1175]
inhibition at 1 µM [1]: 87% | inhibition at 1 µM [2]: 90%

CCOc1ccc(NC(=O)c2ccc(Cc3cc4c(cc3C)C(C)(C)CCC4(C)C)o2)cc1 [Compound 338]
remaining activity at 10 µM (1 h): 26%

CCN(CC)CCNC(=O)c1ccc(NC(=O)c2ccc(Cc3cc4c(cc3C)C(C)(C)CCC4(C)C)o2)cc1 [Compound 321]
remaining activity at 10 µM (1 h): 55%

Cc1cc2c(cc1Cc1ccc(C(=O)Nn3c(N)nc(C(F)(F)F)cc3=O)o1)C(C)(C)CCC2(C)C
inhibition at 10 µM (repeat, read-out: Repeats @ 10 uM hGnRH (% inhib.)): -5% | inhibition at 10 µM (read-out: % inhib. @ 10 uM hGnRH): -10%

Cc1cc2c(cc1Cc1ccc(C(=O)N3CCN(c4ccc(Cl)cc4)C(C)C3)o1)C(C)(C)CCC2(C)C (centres unmarked)
inhibition at 1 µM [1]: -18% | inhibition at 1 µM [2]: -7%

Cc1cc2c(cc1Cc1ccc(C(=O)Nc3ccccc3C(=O)NCCCN3CCCC3=O)o1)C(C)(C)CCC2(C)C [Compound 368]
remaining activity at 10 µM (1 h): 56%

Cc1cnc(CNC(=O)c2ccc(Cc3cc4c(cc3C)C(C)(C)CCC4(C)C)o2)cn1 [drawing 1009]
inhibition at 1 µM (1 h, read-out: Repeats @ 1 uM hGnRH): 107% | inhibition at 1 µM (read-out: % Inhib. @ 1 uM hGnRH): 102%

Cc1cc2c(cc1Cc1ccc(C(=O)Nc3ccc(CC(=O)O)cc3)o1)C(C)(C)CCC2(C)C [Compound 33]
IC50: 5300 nM

Cc1cc2c(cc1Cc1ccc(C(=O)Nc3c(O)cccc3OC(=O)c3ccc(Cc4cc5c(cc4C)C(C)(C)CCC5(C)C)o3)o1)C(C)(C)CCC2(C)C [Compound 193]
IC50: > 10000 nM

Cc1cc2c(cc1Cc1ccc(C(=O)Nc3nccc(Nc4cc(C(F)(F)F)cc(C(F)(F)F)c4)n3)o1)C(C)(C)CCC2(C)C
inhibition at 1 µM [1]: -29% | inhibition at 1 µM [2]: -30%

Cc1cc2c(cc1Cc1ccc(C(=O)NCCNCCN3CCCC3)o1)C(C)(C)CCC2(C)C
inhibition at 1 µM [1]: -5% | inhibition at 1 µM [2]: 0%

COc1cc(OC)c(NC(=O)c2ccc(Cc3c(OC)ccc(OC)c3OC)o2)c(OC)c1 [Compound 209]
IC50: 4380 nM

CC(=O)NCCNC(=O)c1ccc(Cc2cc3c(cc2C)C(C)(C)CCC3(C)C)o1 [drawing 991]
inhibition at 1 µM [1]: 52% | inhibition at 1 µM [2]: 54%

Cc1cc2c(cc1Cc1ccc(C(=O)Nc3c(Cl)cc(Cl)cc3C(F)(F)F)o1)C(C)(C)CCC2(C)C [Compound 395]
remaining activity at 10 µM (1 h): 40%

COC(=O)c1ccc(NC(=O)c2ccc(Cc3cc4c(cc3C)C(C)(C)CCC4(C)C)o2)c(O)c1 [Compound 393]
remaining activity at 10 µM (1 h): 44%

Cc1cc2c(cc1Cc1ccc(C(=O)NCc3ccc(F)cc3Cl)o1)C(C)(C)CCC2(C)C
inhibition at 1 µM [1]: 27% | inhibition at 1 µM [2]: 48%

Cc1cc2c(cc1Cc1ccc(C(=O)NCc3cccc(Br)c3)o1)C(C)(C)CCC2(C)C [Compound 454]
remaining activity at 1 µM (1 h): 36%

Cc1cc2c(cc1Cc1ccc(C(=O)NCCc3ccccc3)o1)C(C)(C)CCC2(C)C [drawing 1079]
inhibition at 1 µM [1]: 59% | inhibition at 1 µM [2]: 60%

Cc1cc2c(cc1Cc1ccc(C(=O)Nc3ccc(CO)cc3)o1)C(C)(C)CCC2(C)C [Compound 339]
remaining activity at 10 µM (1 h): 17%

COc1cccc(CNC(=O)c2ccc(Cc3cc4c(cc3C)C(C)(C)CCC4(C)C)o2)c1OC [drawing 1093]
inhibition at 1 µM [1]: 76% | inhibition at 1 µM [2]: 83%

Cc1cc2c(cc1Cc1ccc(C(=O)NCc3ccco3)o1)C(C)(C)CCC2(C)C [Compound 407]
remaining activity at 1 µM (1 h): 20%

Cc1cc2c(cc1Cc1ccc(C(=O)NCCc3c[nH]c4ccc(OCc5ccccc5)cc34)o1)C(C)(C)CCC2(C)C
inhibition at 1 µM [1]: -6% | inhibition at 1 µM [2]: -7%

Cc1cc2c(cc1Cc1ccc(C(=O)NCCCNCc3ccc(Cl)cc3)o1)C(C)(C)CCC2(C)C
inhibition at 1 µM [1]: -10% | inhibition at 1 µM [2]: -8%

Cc1cc2c(cc1Cc1ccc(C(=O)NCCCN3CCN(C)CC3)o1)C(C)(C)CCC2(C)C [drawing 980]
inhibition at 1 µM [1]: 26% | inhibition at 1 µM [2]: 26%

COc1ccc(C(NC(=O)c2ccc(Cc3cc4c(cc3C)C(C)(C)CCC4(C)C)o2)c2ccc(OC)cc2)cc1
inhibition at 1 µM [1]: 31% | inhibition at 1 µM [2]: 42%

Cc1cc2c(cc1Cc1ccc(C(=O)N3CCN(c4ccc(Cl)cc4)CC3)o1)C(C)(C)CCC2(C)C
inhibition at 1 µM [1]: -11% | inhibition at 1 µM [2]: -17%

Cc1cc2c(cc1Cc1ccc(C(=O)NCC(C)(c3ccccc3)c3ccccc3)o1)C(C)(C)CCC2(C)C
inhibition at 1 µM [1]: 16% | inhibition at 1 µM [2]: 22%

Cc1cc2c(cc1Cc1ccc(C(=O)NC(c3ccccc3)c3ccccc3)o1)C(C)(C)CCC2(C)C [drawing 1071]
% Inhib. @ 1 uM hGnRH (1 uM): −6% | Repeats @ 1 uM hGnRH (repeat of % Inhib. at 1 uM): 2

Cc1cc2c(cc1Cc1ccc(C(=O)Nc3ccc(O)c(C)c3C)o1)C(C)(C)CCC2(C)C [Compound 376]
remaining activity at 10 µM (1 h): 50%

COc1ccc(CCNC(=O)c2ccc(Cc3cc4c(cc3C)C(C)(C)CCC4(C)C)o2)cc1OC [drawing 993]
inhibition at 1 µM [1]: 47% | inhibition at 1 µM [2]: 52%

Cc1cc2c(cc1Cc1ccc(C(=O)NCCSCCCc3ccc(CN(C)C)o3)o1)C(C)(C)CCC2(C)C [Compound 65]
IC50: 710 nM
